# In patent US20120190586A1, “Synthetic Receptors for Identification of Protein Posttranslation Modifications” (priority 2009, published 2012):
# Several values for one entry are separate records, joined by “and”; a condition that tells them apart may be missing. Identical values can stand only once. Like-named read-outs stand apart in the source and are kept apart here.
# How the values were obtained:
# [1] = target: T1, H3 K9Me2 (FAM-QTAR-KMe2-STG-NH2) (Homo sapiens, UniProt P68431); experiment: Fluorescence anisotropy binding of A2B receptors to FAM-labeled histone 3 peptide; details: 27° C., 10 mM phosphate buffer pH 8.5; errors in parentheses
# T1 construct: peptide consisting of residues 5-11 of histone 3 (H3 K9Men); made in house; host or cells: solid-phase chemical peptide synthesis
# Method: (§1) Fluorescence anisotropy was used to measure the dissociation constant of rac- and meso-A2B to a peptide consisting of residues 5-11 of histone 3 (H3 K9Men), with each of the methylation states at Lys 9 as well as an N-terminal carboxyfluorescein (FAM) for fluorescence detection. Binding affinities for H3 K9Me3 were also confirmed by ITC (see below).
# (§2) H3 K9Men: FAM-QTAR-KMen-STG-NH2, n=0-3
# (§3) Fluorescence Anisotropy. Binding assays were performed with purified rac- or meso-A2B and fluorescein labeled histone 3 peptides. Assays were prepared in 384-well plates (Corning) with a total volume of 50 μL per well, containing 20 μM labeled peptide and increasing concentrations of A2B in buffer (10 mM phosphate pH 8.5). Plates were spun down and allowed to incubate for at least 30 minutes before analysis. Fluorescence anisotropy was measured on a PHERAstar (BMG Labtech) using FP485, 520A, and 520B filters at 27° C. The anisotropy data was plotted as a function A2B concentration and each plot was fitted in KaleidaGraph to the following equation (Wang, Y.; Killian, J.; Hamasaki, K.; Rando, R. R. Biochemistry 1996, 35, 12338-12346):
# (§4) where r is fluorescence anisotropy, ro is the initial anisotropy value, r∞ is the maximum anisotropy value, a is the peptide concentration, x is the concentration of A2B, and kd is the dissociation constant. All measurements were taken in duplicate or triplicate.
# [2] = target: T2, H3 K9Me3 (FAM-QTAR-KMe3-STG-NH2) (Homo sapiens, UniProt P68431); experiment: as above; details: for Kd: 27° C., 10 mM phosphate buffer pH 8.5, errors in parentheses; for Affinity for H3 K9Me3 peptide (in words): fluorescence anisotropy
# T2 construct: peptide consisting of residues 5-11 of histone 3 (H3 K9Men); made in house; host or cells: solid-phase chemical peptide synthesis
# Method: as §1, §2, §3, §4
# Ac-KMe3-G-NH2 = experiment: Amplification in biased A2B dynamic combinatorial library (LC-MS); details: biased library A:B 2:1, 7.5 mM total; Ac-KMe3-G-NH2 template
# Method: Using a biased library in which building blocks A and B were mixed in a 2:1 ratio (7.5 mM total), the selectivity of the receptors for different methylation states of lysine was investigated, using Ac—KMen-G-NH2 as the guests (n=0-3). A diverse library was generated in the absence of a template, with A2 and A2B3 as the dominant species and rac-A2B and meso-A2B constituting only 2.4% and 1.1% of the total library composition respectively.
# Dynamic Combinatorial Chemistry. The relevant building blocks were individually dissolved in water, adding sufficient 1.0 M aqueous NaOH to fully deprotonate the thiols and carboxylic acids on the building blocks, using sonication when necessary. The pH of each solution was then adjusted to 8.5 using 1.0 M aqueous HCl and 1.0 M aqueous NaOH. […] The vials were capped and analyzed at various time points.
# Analytical LC-MS. […] Mass spectra (ESI+) were acquired in ultrascan mode by using a drying temperature of 350° C., a nebulizer pressure of 45 psi, a drying gas flow of 10 L/min, and a capillary voltage of 3000 V. The reactions were monitored weekly (3 μL injections) until equilibrium was reached after about 3 weeks. […] The peak areas were integrated at 254 nm and the amplification factors were calculated (A.F.=% area of A2B in templated DCL/% area of A2B in untemplated DCL).
# [3] = target: T3, WGGG-GKMe3 (Histone 3 peptide, Gly8) (Homo sapiens, UniProt P68431, R9G); experiment: Isothermal titration calorimetry, peptide titrated into A2B; type: binding
# T3 construct: made in house; host or cells: solid-phase chemical peptide synthesis
# Method: FIG. 12. Histone 3 peptide (WGGG-GKMe3) used as the titrant in ITC experiments to confirm A2B binding to KMe3.
# Isothermal Titration calorimetry. Isothermal titration calorimetry measurements were conducted using an ITC200 from MicroCal, LLC to verify the binding data obtained by fluorescence anisotropy. A single 0.2 μL aliquot followed by 38 aliquots of 1 μL were titrated into the calorimetric cell every 2.5 minutes. The titrant used to determine the binding to KMe3 was a 2.0 mM solution of the H3 tail peptide in FIG. 12 (in 10 mM phosphate buffer, pH 8.5), containing a Trp for concentration determination and separated from the natural sequence by 3 glycine spacers. This peptide also contained Gly8 as opposed to Arg8 which is found in the native sequence. It has been shown that this mutation has minimal affect on the overall binding affinity. The cell was filled with a 0.2 mM solution of either rac- or meso-A2B (in 10 mM phosphate buffer, pH 8.5). All measurements were carried out at 26° C.
# [4] = target: T4, H3 tail, Lys9 mutated to Gly (Homo sapiens, UniProt P68431, K10G); experiment: Binding to H3 tail with Lys9 mutated to Gly
# T4 construct: A mutant H3 tail with Gly in place of Arg8; made in house; host or cells: solid-phase chemical peptide synthesis
# [5] = target: T5, H3 K9 (unmethylated, FAM-QTAR-K-STG-NH2) (Homo sapiens, UniProt P68431); experiment: Fluorescence anisotropy binding of A2B receptors to FAM-labeled histone 3 peptide
# T5 construct: peptide consisting of residues 5-11 of histone 3 (H3 K9Men); made in house; host or cells: solid-phase chemical peptide synthesis
# Method: as §1, §2, §3, §4
# [6] = target: T6, H3 K9Me (FAM-QTAR-KMe-STG-NH2) (Homo sapiens, UniProt P68431); experiment: as above; details: 27° C., 10 mM phosphate buffer pH 8.5; errors in parentheses
# T6 construct: peptide consisting of residues 5-11 of histone 3 (H3 K9Men); made in house; host or cells: solid-phase chemical peptide synthesis
# Method: as §1, §2, §3, §4
# H3 K9Me3 R8G = target: T7, H3 K9Me3 R8G (Homo sapiens, UniProt P68431, R9G); experiment: Fluorescence anisotropy binding to mutant H3 tail with Gly in place of Arg8; details: 27° C., 10 mM phosphate buffer pH 8.5; errors in parentheses
# T7 construct: peptide consisting of residues 5-11 of histone 3 (H3 K9Men); made in house; host or cells: solid-phase chemical peptide synthesis
# Method: FIG. 11. Fluorescence anisotropy of rac-A2B with H3 KMe3 where Arg8 has been mutated to Gly8 (10 mM sodium phosphate buffer pH 8.5).
# as §3, §4
# [7] = 26° C., 10 mM phosphate buffer pH 8.5, read-out: Kd by ITC, binding to KMe3
"Kd [3, 7]","Kd ([3]; titration of WGGG-GKMe3 into receptor, read-out: Kd by ITC, binding to KMe3 (unit inferred)) [µM]",Binding to H3 tail with Lys9 mutated to Gly (in words) [4],Kd (H3 K9Me3 R8G) [µM],SMILES,Kd [1] [µM],Kd [2] [µM],Affinity for H3 K9Me3 peptide (in words) [2],"Amplification in templated DCL, KMe3 guest (Ac-KMe3-G-NH2)","Kd ([5]; 27° C., 10 mM phosphate buffer pH 8.5) [µM]",Binding to the unmethylated histone tail (in words) ([5]; fluorescence anisotropy),Kd [6] [µM]
12.8 µM and 13 µM,12.8,–,–,O=C(O)C1=C(C(=O)O)[C@@H]2c3ccc4cc3[C@H]1c1ccc(cc12)SSc1ccc2c(c1)[C@H]1C(C(=O)O)=C(C(=O)O)[C@@H]2c2cc(ccc21)SSc1cc(cc(C(=O)O)c1)SS4 [meso-A2B],73,28,low micromolar affinity,approximately 10 fold,–,–,–
20 µM,–,total loss of binding,34,O=C(O)C1=C(C(=O)O)C2c3ccc4cc3C1c1ccc(cc12)SSc1ccc2c(c1)C1C(C(=O)O)=C(C(=O)O)C2c2cc(ccc21)SSc1cc(cc(C(=O)O)c1)SS4 (racemic) [rac-A2B],58,25,low micromolar affinity,approximately 10 fold,> 1200,no appreciable binding,166
